Measurements as given in patent EP1203770A1 (priority 1992, dated 1994).
Like-named read-outs stand apart in the source and are kept apart here.

Target: T1, HIV-1 protease (Human immunodeficiency virus type 1 group M subtype B, UniProt P04585)
T1 construct: The protease (or proteinase), consisting of only 99 amino acids, is among the smallest enzymes known
Assay: In vitro HIV protease inhibitory assay (HIV Protease FITC Assay)
Format: biochemical
How it was run: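 Percent inhibition was read as fluorescence after avidin-bead capture and filtration separated FITC cleavage product from biotinylated substrate. Enzyme and substrate reacted 1 h, RT, dark, at pH 5.5 (0.1 M sodium acetate, 1.0 M NaCl, 0.05% NP-40).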

[1] = HIV-1 Dose 0.123 uM, read-out: HIV-1 Protease % Inhib
[2] = HIV-1 Dose 0.370 uM, read-out: HIV-1 Protease % Inhib
[3] = HIV-1 Dose 1.100 uM, read-out: HIV-1 Protease % Inhib
[4] = HIV-1 Dose 3.300 uM, read-out: HIV-1 Protease % Inhib
[5] = HIV-1 Dose 10.000 uM, read-out: HIV-1 Protease % Inhib
[6] = HIV-1 Dose 30.000 uM, read-out: HIV-1 Protease % Inhib
[7] = read-out: HIV-1 Protease % Inhib

Compound	inhibition at 0.123 µM [1] [%]	inhibition at 0.37 µM [2] [%]	inhibition at 1.1 µM [3] [%]	inhibition at 3.3 µM [4] [%]	inhibition at 10 µM [5] [%]	inhibition at 30 µM [6] [%]	Ki (read-out: HIV-1 FITC Ki) [nM]	also measured
CCC(Cc1ccccc1)c1cc(O)c(C(c2cccc(NC(=O)CCn3ccc4ccccc43)c2)C2CC2)c(=O)o1 (stereo not drawn) [Example 230, 3-(α-Cyclopropyl-meta-(3-(1-indolyl)propanoylamino)benzyl)-6-(α-ethylphenethyl)-4-hydroxy-2H-pyran-2-one]	< 10	15.3	48.6	71.3	91.1	85.3	–	–
CCC(Cc1ccccc1)c1cc(O)c(C(c2cccc(NC(=O)Cc3ccccn3)c2)C2CC2)c(=O)o1 (stereo not drawn) [Example 231, 3-(α-Cyclopropyl-meta-(2-pyridylacetylamino)benzyl)-6-(α-ethylphenethyl)-4-hydroxy-2H-pyran-2-one]	16.5	57.4	77.7	98.9	113	109	52.4	–
COCOCc1ccc(C(C2=C(O)CC(CCc3ccccc3)(CC(C)C)OC2=O)C2CC2)s1 (stereo not drawn) [Example 232, 2H-Pyran-2-one, 3-(α-cyclopropyl-[5-(methoxymethoxy-methyl)-thiophen-2-yl]-methyl)-5,6-dihydro-4-hydroxy-6-(2-methylpropyl)-6-(2-phenylethyl)-]	–	–	–	–	–	–	76	HIV-1 Protease % Inhib (HIV-1 Dose 0.123 uM): 10.57%; HIV-1 Protease % Inhib (HIV-1 Dose 0.370 uM): 36.97%; HIV-1 Protease % Inhib (HIV-1 Dose 1.100 uM): 73.74%; HIV-1 Protease % Inhib (HIV-1 Dose 3.300 uM): 93.56%; HIV-1 Protease % Inhib (HIV-1 Dose 10.000 uM): 103.56%; HIV-1 Protease % Inhib (HIV-1 Dose 30.000 uM): 98.87%
C=CC(C1=C(O)CC(CCc2ccccc2)(CC(C)C)OC1=O)c1ccccc1 (stereo not shown) [Example 233, 2H-Pyran-2-one, 5,6-dihydro-4-hydroxy-6-(2-methylpropyl)-6-(2-phenylethyl)-3-(1-phenyl-2-propenyl)-]	< 10	28.9	64.9	83.1	93.7	59.4	24.8	–
CCC(C1=C(O)CC(CCc2ccccc2)(CC(C)C)OC1=O)c1ccccc1 (stereo not shown) [Example 234, 2H-Pyran-2-one, 5,6-dihydro-4-hydroxy-6-(2-methylpropyl)-6-(2-phenylethyl)-3-(1-phenylpropyl)-]	< 10	33.4	61.6	81.1	83	71.1	39.4	–
O=C1OC(CCc2ccccc2)(CCc2ccccc2)CC(O)=C1C(c1ccccc1)c1ccccc1 [Example 235, 2H-Pyran-2-one, 5,6-dihydro-3-diphenylmethyl4-hydroxy-6,6-di-(2-phenylethyl)-]	< 10	13.7	33.2	61.6	73.3	80.1	–	–
O=C1OC(CCc2ccccc2)(CCc2ccccc2)CC(O)=C1C(C=Cc1ccccc1)c1ccccc1 (stereo not shown) [Example 236, 2H-Pyran-2-one, 5,6-dihydro-4-hydroxy-6,6-di-(2-phenylethyl)-3-(1,3-diphenyl-2-propenyl)-]	< 10	< 10	26	54.1	75.8	78.7	–	–
O=C1OC(CCc2ccccc2)(CCc2ccccc2)CC(O)=C1C(CCc1ccccc1)c1ccccc1 (stereo not shown) [Example 237, 2H-Pyran-2-one, 5,6-dihydro-4-hydroxy-6,6-di-(2-phenylethyl)-3-(1,3-diphenylpropyl)-]	< 10	10.2	32	60.2	80.9	78.2	–	–
CCCC1(CCCc2ccccc2)CC(O)=C(C(C=Cc2ccccc2)c2ccccc2)C(=O)O1 (stereo not shown) [Example 238, 2H-Pyran-2-one, 5,6-dihydro-4-hydroxy-3-(1,3-diphenyl-2-propenyl)-6-(3-phenylpropyl)-6-propyl-]	< 10	20.5	52.8	75.6	81	87.1	163	–
CCCC1(CCCc2ccccc2)CC(O)=C(C(CCc2ccccc2)c2ccccc2)C(=O)O1 (stereo not shown) [Example 239, 2H-Pyran-2-one, 5,6-dihydro-4-hydroxy-3-(1,3-diphenylpropyl)-6-(3-phenylpropyl)-6-propyl-]	< 10	35.8	63.9	79.8	91	85.7	99	–
CCCC1(CCc2ccccc2)CC(O)=C(C(c2ccc(COCOC)s2)C2CC2)C(=O)O1 (stereo not drawn) [Example 240, 2H-Pyran-2-one, 3-(α-cyclopropyl-[5-(methoxymethoxy-methyl)-thiophen-2-yl]-methyl)-5,6-dihydro-4-hydroxy-6-(2-phenylethyl)-6-propyl-]	< 10	40.6	68.7	95	113	104	29.2	–
CCCC1(CCCc2ccccc2)CC(O)=C(C(c2ccc(COCOC)s2)C2CC2)C(=O)O1 (stereo not drawn) [Example 241, 2H-Pyran-2-one, 3-(α-cyclopropyl-[5-(methoxymethoxy-methyl)-thiophen-2-yl]-methyl)-5,6-dihydro-4-hydroxy-6-(3-phenylpropyl)-6-propyl-]	< 10	< 10	32.8	62.9	87.1	90.3	–	–
CCCC1(CCCc2ccccc2)CC(O)=C(C(c2ccccc2)c2ccccc2)C(=O)O1 (stereo not shown) [Example 242, 2H-Pyran-2-one, 5,6-dihydro-3-diphenylmethyl-4-hydroxy-6-(3-phenylpropyl)-6-propyl-]	< 10	19.9	53.5	80.5	90.2	93.2	32.3	–
O=c1oc(C(CC2CC2)CC2CCCOC2)cc(O)c1C(c1ccccc1)C1CC1 (stereo not drawn) [Example 243, 3-(α-Cyclopropylbenzyl)-6-[1-cyclopropylmethyl-2-(tetrahydropyran-3-yl)ethyl]-4-hydroxy-2H-pyran-2-one]	< 10	36.2	70.5	94.7	105	102	69	–
CCS(=O)(=O)Nc1cccc(C(c2c(O)cc(C(CC3CC3)CC3CCCOC3)oc2=O)C2CC2)c1 (stereo not shown) [Example 244]	20.7	57.9	81.9	90.6	103	99.4	15.4	–
Cc1ccc(S(=O)(=O)Nc2cccc(C(c3c(O)cc(C(CC4CC4)CC4CCCOC4)oc3=O)C3CC3)c2)cc1 (stereo not shown) [Example 245]	25.9	58	83.3	90.3	96.9	94.1	20.6	–
CCC(Cc1ccccc1)c1cc(O)c(C(c2cccc(NS(=O)(=O)c3ccc(C)cc3)c2)C2CC2)c(=O)o1 (stereo not shown) [Example 246]	24.7	60.1	79.9	92.3	92.7	93.3	21.6	–
CCC(Cc1ccccc1)c1cc(O)c(C(c2cccc(NS(=O)(=O)CC)c2)C2CC2)c(=O)o1 (stereo not shown) [Example 247]	14.1	47	73.1	86.7	96.1	97	30.4	–
CCC(Cc1ccccc1)c1cc(O)c(C(c2cccc(NC(=O)Cc3cccnc3)c2)C2CC2)c(=O)o1 (stereo not drawn) [Example 248, 3-(α-Cyclopropyl-meta-(3-pyridylacetylamino)benzyl)-6-(α-ethylphenethyl)-4-hydroxy-2H-pyran-2-one]	< 10	31.6	63.7	86.5	101	99.2	61.7	–
CCC(Cc1ccccc1)c1cc(O)c(C(c2cccc(NC(=O)Cc3ccncc3)c2)C2CC2)c(=O)o1 (stereo not drawn) [Example 249, 3-(α-Cyclopropyl-meta-(4-pyridylacetylamino)benzyl)-6-(α-ethylphenethyl)-4-hydroxy-2H-pyran-2-one]	–	–	–	–	–	–	–	Ki: 44.4 nM; inhibition at 0.123 µM [7]: < 10%; inhibition at 0.37 µM [7]: 40%; inhibition at 1.1 µM [7]: 70.3%; inhibition at 3.3 µM [7]: 88.5%; inhibition at 10 µM [7]: 103%; inhibition at 30 µM [7]: 107%
C=CC(c1ccccc1)c1c(O)cc(C)oc1=O (stereo not shown) [PREPARATION 10, 4-Hydroxy-6-methyl-3-(1'-phenyl-2'-propenyl)-2-pyrone]	–	–	–	–	< 10	–	–	HIV activity: found to have HIV activity; inhibition at 1 µM (HIV-1 Dose 1.000 uM, read-out: HIV-1 Protease % Inhib): < 10%; inhibition at 100 µM (HIV-1 Dose 100.000 uM, read-out: HIV-1 Protease % Inhib): 43.5%
